Columns and labels:
[1] = tested on: Normal, nontransgenic (NonTg) C57/B6 mice; test: rotorod performance task (motor function); format: in vivo; details: diet supplemented with additional 200 mg/kg tocopherol from 40 days of age; versus basal diet or α-tocopherol supplemented diet
Experimental: Normal, nontransgenic (NonTg) C57/B6 mice were studied for efficacy of γT on motor performance and/or enhanced muscle function. Beginning at 40 days of age, animals were fed a basal AIN93G laboratory animal diet containing 75 mg/kg α-tocopherol and negligible γ-tocopherol; or the same diet supplemented with an additional 200 mg/kg α-tocopherol or γ-tocopherol. Motor function was measured by a standard rotorod performance task (Klivenyi et al., 1999). Animals were placed on a motorized, rubber-coated metal rod that was set to rotate at 1 rpm increasing by 1 rpm every 10 seconds (Klivenyi et al., 1999). The speed of the rod rotation at which the mouse falls off is taken as a measure of motor competency (Klivenyi et al., 1999). Each mouse was tested in three trials every 10 days.

[2] = relative to the corresponding reaction of αT (Cooney et al., 1993); cited from earlier work
[3] = tested on: methylcholanthrene-treated C3H/10T1/2 fibroblasts; details: methylcholanthrene-treated C3H/10T1/2 fibroblasts (Cooney et al., 1993); cited from earlier work
[4] = liposomal tocopherol exposed to synthetic peroxynitrite (Christen et al., 1997); cited from earlier work
[5] = tested on: tocopherol-depleted rats; details: rats fed tocopherol for two weeks after chronic iron-dextran (Dillard et al., 1983); cited from earlier work
[6] = tested on: iron-induced lipid peroxidation and occlusive thrombus formation; details: Saldeen et al., 1999; cited from earlier work
[7] = cited from earlier work; for absorption by the gut: Traber et al., 1992
[8] = tested on: humans; details: limited trials in humans (Clarkson 1995; Powers and Lennon 1999); cited from earlier work
[9] = tested on: rodent; details: rodent (Novelli et al., 1990); cited from earlier work

Structure (SMILES) | capability of performing the motor function task (rotorod) [1] | rate of in vitro reaction with NO2 gas relative to αT [2] [times] | effectiveness at inhibiting neoplastic transformation relative to αT [3] [fold] | effectiveness at inhibiting lipid hydroperoxide formation relative to αT [4] | effectiveness at inhibiting systemic lipid oxidation relative to αT [5] | inhibition of systemic lipid oxidation [5] | potency at inhibition of iron-induced lipid peroxidation and occlusive thrombus formation relative to αT [6] | absorption by the gut [7] | packaging into lipoproteins ([7]; relative to αT (Traber et al., 1992)) | muscle endurance [8] | endurance during a swimming test [9]
Cc1c(O)cc2c(c1C)O[C@](C)(CCC[C@H](C)CCC[C@H](C)CCCC(C)C)CC2 [γ-tocopherol] | significantly more capable of performing the motor function task | 6 | 4 | twice as effective | approximately 35% | inhibited systemic lipid oxidation | 20-30 times | absorbed equally well | less effectively |  | 
Cc1c(C)c2c(c(C)c1O)CC[C@@](C)(CCC[C@H](C)CCC[C@H](C)CCCC(C)C)O2 [α-tocopherol, reference compound] |  |  |  |  |  | inhibited systemic lipid oxidation |  | absorbed equally well |  | did not extend muscle endurance | extended rodent endurance

Reference: US20040034093A1, “Methods for enhancing motor performance and/or endurance” (priority 2002, published 2004)
